Source: ChEMBL document CHEMBL1140746, “Cdc7 kinase inhibitors: pyrrolopyridinones as potential antitumor agents. 1. Synthesis and structure-activity relationships” (J Med Chem, 2008)

Each compound was assayed against Cell division cycle 7-related protein kinase (Homo sapiens, UniProt O00311). Conditions: not given.
Sequence of Cell division cycle 7-related protein kinase (O00311 whole entry): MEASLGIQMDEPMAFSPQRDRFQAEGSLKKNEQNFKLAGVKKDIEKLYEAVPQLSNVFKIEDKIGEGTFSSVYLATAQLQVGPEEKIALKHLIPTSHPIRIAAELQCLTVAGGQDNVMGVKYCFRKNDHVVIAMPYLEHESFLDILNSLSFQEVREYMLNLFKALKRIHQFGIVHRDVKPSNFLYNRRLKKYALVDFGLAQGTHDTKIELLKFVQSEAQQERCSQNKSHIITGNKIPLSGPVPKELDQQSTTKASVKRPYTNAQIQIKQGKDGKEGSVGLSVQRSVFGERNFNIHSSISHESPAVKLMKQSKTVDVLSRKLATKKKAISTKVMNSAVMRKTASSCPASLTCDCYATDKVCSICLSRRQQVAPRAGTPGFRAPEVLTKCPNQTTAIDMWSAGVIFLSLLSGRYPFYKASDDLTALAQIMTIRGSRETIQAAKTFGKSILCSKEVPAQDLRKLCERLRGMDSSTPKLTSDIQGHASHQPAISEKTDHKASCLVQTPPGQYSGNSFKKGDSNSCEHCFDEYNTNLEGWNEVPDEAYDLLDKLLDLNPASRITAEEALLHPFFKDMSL

SMILES	IC50
Nc1nccc(-c2c[nH]c3c2C(=O)NCC3)n1	> 5000 nM
Nc1nccc(-c2cc3c(n2-c2ccccc2)CCNC3=O)n1	> 5000 nM
Nc1nccc(-c2cc3c(n2C2CCCCC2)CCNC3=O)n1	> 5000 nM
O=C1NCCc2[nH]c(-c3ccccc3)cc21	> 5000 nM
Nc1nccc(-c2cc3c(n2Cc2ccccc2)CCNC3=O)n1	290 nM
O=C1NCCc2[nH]c(-c3ccnc(NCC4CCCCC4)n3)cc21	655 nM
O=C1NCCc2[nH]ccc21	> 5000 nM
CC(C)C(=O)Nc1nccc(-c2cc3c([nH]2)CCNC3=O)n1	1400 nM
CCCNc1nccc(-c2cc3c([nH]2)CCNC3=O)n1	259 nM
O=C1NCCc2[nH]c(-c3ncnc4[nH]cnc34)cc21	178 nM
O=C1NCCc2c1cc(-c1ccncc1)n2CCO	3300 nM
CC(=O)Nc1nccc(-c2cc3c([nH]2)CCNC3=O)n1	323 nM
O=C1NCCc2[nH]c(-c3ccnc(NCc4ccccc4)n3)cc21	220 nM
O=C1NCCc2oc(-c3ccncc3)cc21	201 nM
O=CN1CCc2[nH]c(-c3ccncc3)cc2C1=O	863 nM
O=C(Nc1nccc(-c2cc3c([nH]2)CCNC3=O)n1)c1ccccc1	262 nM
Cn1c(-c2ccncc2)cc2c1CCNC2=O	404 nM
O=C1NCCc2c1cc(-c1ccncc1)n2CC(F)(F)F	160 nM
O=C1NCCn2nc(-c3ccncc3)cc21	210 nM
O=C1NCCc2[nH]c(-c3cccnc3)cc21	> 5000 nM
CC(C)CNc1nccc(-c2cc3c([nH]2)CCNC3=O)n1	636 nM

More lines, in order of falling IC50, values ahead:

IC50	SMILES
158 nM	O=C1NCCCc2[nH]c(-c3ccncc3)cc21
138 nM	Nc1nccc(-c2cc3c(n2CCO)CCNC3=O)n1
120 nM	CN1CCC(n2c(-c3ccnc(N)n3)cc3c2CCNC3=O)CC1
88 nM	Cn1c(-c2ccnc(N)n2)cc2c1CCNC2=O
67 nM	CCn1c(-c2ccncc2)cc2c1CCNC2=O
47 nM	Nc1nccc(-c2cc3c(n2CCCC(F)(F)F)CCNC3=O)n1
45 nM	Cc1c(-c2ccncc2)[nH]c2c1C(=O)NCC2
42 nM	CC(C)n1c(-c2ccnc(N)n2)cc2c1CCNC2=O
28 nM	Nc1cc(-c2cc3c([nH]2)CCNC3=O)ccn1
27 nM	O=C1NCc2[nH]c(-c3ccncc3)cc21
23 nM	CCCCn1c(-c2ccnc(N)n2)cc2c1CCNC2=O
20 nM	O=C1NCCc2[nH]c(-c3ccncn3)cc21
14 nM	Nc1nccc(-c2cc3c(n2C2CCC2)CCNC3=O)n1
14 nM	O=C1NCCc2[nH]c(-c3ccnc4[nH]ccc34)cc21
13 nM	CC(C)Cn1c(-c2ccnc(N)n2)cc2c1CCNC2=O
12 nM	CCCn1c(-c2ccnc(N)n2)cc2c1CCNC2=O
9 nM	O=C1NCCc2[nH]c(-c3ccncc3F)cc21
8 nM	CCn1c(-c2ccnc(N)n2)cc2c1CCNC2=O
7 nM	Nc1nccc(-c2cc3c([nH]2)CCNC3=O)n1
5 nM	Nc1nccc(-c2cc3c(n2CC(F)(F)F)CCNC3=O)n1
4 nM	Nc1nccc(-c2cc3c(n2CC2CC2)CCNC3=O)n1
4 nM	Nc1ncc(Br)c(-c2cc3c([nH]2)CCNC3=O)n1
3 nM	Nc1nccc(-c2cc3c(n2CCF)CCNC3=O)n1
2 nM	O=C1NCCc2[nH]c3c(ccc4cnccc43)c21

The compounds below were run on A2780 (assay: Antiproliferative activity against human A2780 cells after 72 hrs). Conditions: A2780, 72 h.
Format: functional, cell-based

IC50	SMILES
4700 nM	O=C1NCc2[nH]c(-c3ccncc3)cc21
> 10000 nM	Nc1cc(-c2cc3c([nH]2)CCNC3=O)ccn1
5500 nM	O=C1NCCc2[nH]c(-c3ccncn3)cc21
200 nM	O=C1NCCc2[nH]c(-c3ccncc3F)cc21
100 nM	O=C1NCCc2[nH]c3c(ccc4cnccc43)c21
> 10000 nM	O=C1NCCc2[nH]c(-c3ccnc4[nH]ccc34)cc21
800 nM	Nc1ncc(Br)c(-c2cc3c([nH]2)CCNC3=O)n1
